In patent publication US20170239212A1, “[…] AND USE THEREOF AS ANTIVIRAL AGENTS” (priority 2014, published 2017):

Experiments:
[1] = test system: LNCaP human prostate cancer cells; assay: Apoptosis of LNCaP cells (flow cytometry, Yo-Pro-1/7-AAD); assay type: cell-based; settings: 48 hr; for Induction of apoptosis in LNCaP cells: compound alone
Procedure: FIGS. 12A-12D show the effect of different compounds on the proliferation and apoptosis of LNCaP cells. […] Time-elapsed images were taken with an Incucyte imaging system every hour for 4 days. The proliferation of LNCaP cells is presented as increase in confluency (read by the instrument) at 80 hrs. Data represent the means±SEM of three independent experiments. […] Apoptosis was measured 2 days after treatment by flow cytometry using 7-AAD and Yo-Pro-1 as described in Materials and Methods. Data represent the means±SEM of three independent experiments.
LNCaP cells treated for 48 hours with the different drugs or with DMSO as control were washed and re-suspended in phosphate buffered saline. Yo-Pro-1 (Invitrogen, Carlsbad, Calif.) was added to a final concentration of 1 μM and the cells were incubated for 20 min at 4° C. in the dark. 7-Aminoactinomycin D (7-AAD) (Invitrogen, Carlsbad, Calif.) was then added at a 5 μg/mL final concentration 10 minutes before analysis by flow cytometry using the FACSCalibur system (Becton Dickinson, Mountain View, Calif.). Data were analyzed with FlowJo 7 (Tree Star Inc., Ashland, Oreg.). The Yo-Pro-1 positive cells were considered apoptotic and were expressed as % of total cells. Western blot analysis of treated LNCaP cell lysates was performed as described previously using rabbit anti-cFos, rabbit anti-PKC delta, rabbit anti-phospho-tyrosine 311 of PKC delta or rabbit anti-3-actin antibodies.

U937 cells = assay: Inhibition of U937 cell proliferation; assay type: cell-based, human; settings: for Block of PMA inhibition of U937 cell proliferation: 10 nM PMA with different concentrations of compound; for Inhibition of U937 cell proliferation (total cells as % of control): compound alone, 72 hours
Procedure: U937 cells (Sundstrom, C.; Nilsson, K.: Establishment and characterization of a human histiocytic lymphoma cell line (U-937). Int. J. Cancer 1976, 17: 565-577), purchased from ATCC (Manassas, Va.) and cultured in RPMI-1640 medium supplemented with 10% FBS (ATCC, Manassas, Va.), were plated in 35 mm dishes at a density of 2×10^5 living cells/ml and treated with different concentrations of the drugs or DMSO. After 72 hours, the number of cells in the supernatant (non-attached cells) and the number of attached cells (after trypsinization) were counted using a Beckman particle counter (Beckman Coulter Inc., Fullerton, Calif.). The number of attached cells is expressed as percent of total cells (FIGS. 8-10).
(§1) U937 cells were treated with PMA (0.1-100 nM), bryostatin 1 (1-1000 nM), the indicated compound (1-1000 nM), 10 nM PMA with different concentrations of bryostatin 1 (1-1000 nM) or 10 nM PMA with different concentrations of indicated compound (1-1000 nM). The number of attached and non-attached cells was counted and the number of total cells was expressed as % of control. The bars and error bars represent the average and the standard error of the mean of five independent experiments (FIGS. 8-10).
(§2) U937 cells (Sundstrom and Nilsson, 1976), purchased from ATCC (Manassas, Va.) and cultured in RPMI-1640 medium supplemented with 10% FBS (ATCC, Manassas, Va.), were plated in 35 mm dishes at a density of 1×10^5 living cells/ml and treated with different concentrations of the drugs or DMSO. After 72 hours, the number of cells in the supernatant (non-attached cells) and the number of attached cells (after trypsinization) were counted using a particle counter. The number of attached cells is expressed as percent of total cells.
U937 cells were treated with PMA (0.01-100 nM), bryostatin 1 (0.1-1000 nM), analogue 12 (MERLE 28) (0.1-1000 nM), 10 nM PMA with different concentrations of bryostatin 1 (0.1-1000 nM) or 10 nM PMA with different concentrations of analogue 12 (0.1-1000 nM). The numbers of attached and non-attached cells were counted and the number of total cells was expressed as % of control. The bars and error bars represent the average and the standard error of the mean of at least three independent experiments.
as §2
as §1, with “at least three” for “five”, “experiments.” for “experiments (FIGS. 8-10).”

[2] = test system: HIV long terminal repeat (LTR) promoter; assay: HOS LTR stimulation assay (luciferase reporter); assay type: cell-based
Procedure: In the assay, non T cell derived human osteosarcoma (HOS) cells are transfected with a luciferase reporter under control of an HIV long terminal repeat (LTR) promoter. Compounds that stimulate the HIV LTR promoter will produce luciferase in a dose dependent manner.
(§3) Specifically, EC50 and CC50 values were determined in parallel using 10 concentrations of compound from 3 fold serial dilutions starting a 5 uM as the highest concentration. Cells and media were added to compounds with a final concentration of DMSO of 1% and incubated at 37° C., 5% CO2 for 24, 48 and 72 hours. EC50 was measured by induced luciferase activity detected by the use of the Steady-Glo® Luciferase reagent (PROMEGA) with an EnVision (Perkin-Elmer) plate reader. CC50 was determined by the dose dependent knock down of cellular ATP detected by the use of CellTiter-Glo® Luminescent Cell Viability reagent (PROMEGA) with an EnVision (Perkin-Elmer) plate reader.
The error bars represent the average and the standard error of the mean of at least three independent experiments.

[3] = test system: human osteosarcoma (HOS) cells; assay: HOS cell viability (CellTiter-Glo, cellular ATP); assay type: cell-based; set-up: unit not given here; settings: knock down of cellular ATP
Procedure: as §3

[4] = target: HIV long terminal repeat (LTR) promoter; assay: in vitro; assay type: cell-based; settings: Jurkat cells
Procedure: as §3, with “The compounds were also tested in the T cell derived Jurkat cell line transfected with a luciferase reporter under control of an HIV long terminal repeat (LTR) promoter. Specifically,” for “Specifically,”

Jurkat cell line = assay: in vitro; assay type: cell-based; settings: Jurkat cells, knock down of cellular ATP
Procedure: as §3, with “The compounds were also tested in the T cell derived Jurkat cell line transfected with a luciferase reporter under control of an HIV long terminal repeat (LTR) promoter. Specifically,” for “Specifically,”

SMILES	Block of PMA-induced apoptosis in LNCaP cells ([1]; 300 nM PMA combined with 1000 nM compound)	Induction of apoptosis in LNCaP cells [1]	Block of PMA inhibition of U937 cell proliferation (U937 cells)	Block of PMA inhibition of U937 cell proliferation (U937 cells; listed as bryostatin 1)	Inhibition of U937 cell proliferation (total cells as % of control) (U937 cells)	Inhibition of U937 cell proliferation (total cells as % of control) (U937 cells; listed as bryostatin 1)	Max signal (% of control) ([2]; HOS cells, LTR-luciferase signal)	Conc (uM) at Max ([2]; HOS cells, concentration at maximal LTR-luciferase signal)	EC50 ([2]; Human immunodeficiency virus 1, HOS)	CCEC50 [3]	EC50 ([4]; LTR-luciferase, incubated 24, 48 and 72 hours (time of the listed values not stated))	Selectivity (CC50:EC50) ([4]; ratio of the CC50 to the EC50)	CC50 (Jurkat cell line)
CCC/C=C/C=C/C(=O)O[C@H]1/C(=C/C(=O)OC)C[C@H]2C[C@H]([C@@H](C)O)OC(=O)C[C@H](O)C[C@@H]3C[C@H](OC(C)=O)C(C)(C)[C@](O)(C[C@@H]4C/C(=C/C(=O)OC)C[C@H](/C=C/C(C)(C)[C@]1(O)O2)O4)O3 [Bryostatin 1]	largely blocked the induction of apoptosis by PMA	had little effect	blocks the effect of the phorbol ester	able to block the effect of PMA in a dose dependent manner	has much less effect on either response	not strongly antiproliferative	157 % of control	2.51 µM	2 nM	>5			
CCCCCCCCCCCCCC(=O)O[C@@H]1[C@@H](C)[C@@]2(O)[C@@H](C=C(CO)C[C@]3(O)C(=O)C(C)=C[C@@H]23)[C@@H]2C(C)(C)[C@]12OC(C)=O [PMA, phorbol 12-myristate 13-acetate]		induced apoptosis			inhibits cell proliferation						0.1 nM	1	0.1 nM
